Read-outs that look alike come from different tables or passages of the source.
Columns and labels:
[1] = Mouse plasma stability protocol, up to 1 h (Examples 16-18); conditions: for % Remaining (1 h): % Remaining of parent after 1 h incubation in mouse plasma at 37° C. (10 μM); for % Remaining (1 h, 37° C.): mouse plasma
[2] = Metabolite profiling and identification; assay type: in vitro ADME; set-up: key: —: Not detected; conditions: for Metabolite N-dealkylation + glucuronidation: M+1 527.3; for Metabolite Sulfation: M+1 542.3; for Metabolite Hydrolysis (SN-38): M+1 393.3; for Metabolite Hydrolysis (SDC-TRAP-0062): M+1 462.3; for Metabolite Hydrolysis (SN-38) + glucuronidation: M+1 569.3; for Metabolite Hydrolysis (SDC-TRAP-0062) + glucuronidation: M+1 638.3; for Metabolite Hydrolysis (SDC-TRAP-0063): M+1 880.3; for Metabolite Hydrolysis (SDC-TRAP-0063) + glucuronidation: M+1 1056.4; for Metabolite Glucuronidation: M+1 1136.4
From the text: Metabolite Profiling and Identification: Metabolite profiling/identification for SDC-TRAP-0063 (M+1:880.3)

[3] = female, SCID, mouse, in vivo
Method: Using the 10 mM stock solutions of the SDC-TRAP molecule and its Hsp90i binding moiety and effector moiety in DMSO, spiking solutions were prepared at 0.025, 0.05, 0.1, 0.5, 1, 5, 10, 50, 100, 250, and 500 μM in DMSO. 5 μL of each spiking solution was added to a 96-deep well plate.
Quality control standards were prepared from 5 μL of 0.1, 1, and 10 μM calibration standard spiking solution added in triplicate into 96-deep well plate and adding 50 μL of matrix (plasma or homogenized tumor).
To prepare test samples, test plasma was diluted as needed using blank plasma.
Tumor samples were pulverized in liquid nitrogen, weighed, and homogenized in PBS at 5× volume to sample weight. 50 μL of unknown plasma or homogenized tumor sample was mixed with 5 μL of DMSO. The samples were extracted by precipitating calibration standards, QC standards, and unknown samples with 200 μL of internal standard solution. The samples were mixed by vortex at room temperature for approximately 1.5 minutes, then centrifuge at 2-8° C. 150 μL of supernatant was collected and 25 μL of water added. Samples were mixed and analyzed by LC-MS/MS.
Samples of plasma, heart and tumor were excised from a euthanized mouse, homogenized in PBS at 5 times tissue weight and diluted in 5 μL DMSO/50 μL sample. Prior to analysis, 55 μL samples and calibration standards were precipitated in 200 μL methanol in 96-well plates. Samples were mixed on a vortex mixer for 1.5 minutes at 1500 rpm at room temperature, then centrifuged at 4400 rpm for 10 minutes at 8° C. 150 μL of each supernatant was transferred to a well of a new 96-well plate, and 25 μL of water was added and mixed with the sample. […] For the analysis of samples from female SCID mice, a gradient of solvent A (water/0.1% formic acid) and B (acetonitrile/0.1% formic acid) was used as in Table 2 below.
Various SDC-TRAP molecules and appropriate controls were administered to mice and after various time points the plasma and tumor concentration of these molecules was determined.

In the case of `CCNC(=O)c1noc(-c2cc(C(C)C)c(O)cc2O)c1-c1ccc(CN2CCN(C(=O)Oc3ccc4nc5c(c(CC)c4c3)Cn3c-5cc4c(c3=O)COC(=O)C4(O)CC)CC2)cc1` (stereo not drawn) [SDC-TRAP-0236, 4,11-diethyl-4-hydroxy-3,14-dioxo-3,4,12,14-tetrahydro-1H-pyrano[3′,4′:6,7]indolizino[1,2-b]quinolin-9-yl 4-(4-(5-(2,4-dihydroxy-5-isopropylphenyl)-3-(ethylcarbamoyl)isoxazol-4-yl)benzyl)piperazine-1-carboxylate], the “% Remaining (1 h)” value [1] is reported as 60.8%.

With `CC(C)c1cc(-c2nnc(O)n2-c2ccc3c(ccn3CCC3CCNCC3)c2)c(O)cc1O` [SDC-TRAP-0062] the “Metabolite N-dealkylation + glucuronidation” value ([2]; Hepatocytes Dog) was “√”, the “Metabolite N-dealkylation + glucuronidation” value ([2]; Hepatocytes Human) was “√” and the “Metabolite N-dealkylation + glucuronidation” value ([2]; Hepatocytes Monkey) was “—”. The “Metabolite N-dealkylation + glucuronidation” value ([2]; Hepatocytes Mouse) was “√”, the “Metabolite Sulfation” value ([2]; Hepatocytes Mouse) was “—” and the “Metabolite N-dealkylation + glucuronidation” value ([2]; Hepatocytes Rat) was “—”. The “Metabolite Sulfation” value ([2]; Hepatocytes Rat) was “√”.

With `CCc1c2c(nc3ccc(OC(=O)N4CCC(N(C)CCNC(=O)c5nnc(-c6cc(C(C)C)c(O)cc6O)n5-c5cccnc5)CC4)cc13)-c1cc3c(c(=O)n1C2)COC(=O)C3(O)CC` (stereo not drawn) [SDC-TRAP-0358] the “% Remaining (1 h)” value [1] was 41.0%.

In the case of `CCNC(=O)c1nnc(-c2cc(C(C)C)c(O)cc2O)n1-c1ccc2c(c1)CN(S(=O)(=O)C1CCN(C(=O)Oc3ccc4nc5c(c(CC)c4c3)Cn3c-5cc4c(c3=O)COC(=O)C4(O)CC)CC1)C2` (stereo not drawn) [SDC-TRAP-0391, 4,11-diethyl-4-hydroxy-3,14-dioxo-3,4,12,14-tetrahydro-1H-pyrano[3′,4:6,7]indolizino[1,2-b]quinolin-9-yl 4-((5-(3-(2,4-dihydroxy-5-isopropylphenyl)-5-(ethylcarbamoyl)-4H-1,2,4-triazol-4-yl)isoindolin-2-yl)sulfonyl)piperidine-1-carboxylate], the “% Remaining (1 h)” value [1] is reported as 15.2%.

With `CCc1c2c(nc3ccc(OC(=O)N4CCC(N5CCC(CCn6ccc7ccc(-n8c(O)nnc8-c8cc(C(C)C)c(O)cc8O)cc76)CC5)CC4)cc13)-c1cc3c(c(=O)n1C2)COC(=O)C3(O)CC` (stereo not drawn) [SDC-TRAP-0353, 4,11-diethyl-4-hydroxy-3,14-dioxo-3,4,12,14-tetrahydro-1H-pyrano[3′,4′:6,7]indolizino[1,2-b]quinolin-9-yl 4-(2-(6-(3-(2,4-dihydroxy-5-isopropylphenyl)-5-hydroxy-4H-1,2,4-triazol-4-yl)-1H-indol-1-yl)ethyl)-[1,4′-bipiperidine]-1′-carboxylate] the “% Remaining (1 h)” value [1] was 22.5%.

For `CCNC(=O)c1nnc(-c2cc(C(C)C)c(O)cc2O)n1-c1ccc(S(=O)(=O)N2CCC(C(=O)N3CCN(C(=O)Oc4ccc5nc6c(c(CC)c5c4)Cn4c-6cc5c(c4=O)COC(=O)C5(O)CC)CC3)CC2)cc1` (stereo not drawn) [SDC-TRAP-0383, 4,11-diethyl-4-hydroxy-3,14-dioxo-3,4,12,14-tetrahydro-1H-pyrano[3′,4′:6,7]indolizino[1,2-b]quinolin-9-yl 4-(1-((4-(3-(2,4-dihydroxy-5-isopropylphenyl)-5-(ethylcarbamoyl)-4H-1,2,4-triazol-4-yl)phenyl)sulfonyl)piperidine-4-carbonyl)piperazine-1-carboxylate], the “% Remaining (1 h)” value [1] was 47.6%.

In the case of `CCc1c2c(nc3ccc(OC(=O)N4CCC(CCn5ccc6cc(-n7c(O)nnc7-c7cc(C(C)C)c(O)cc7O)ccc65)CC4)cc13)-c1cc3c(c(=O)n1C2)COC(=O)C3(CC)OP(=O)(O)O` (stereo not drawn) [SDC-TRAP-0397, 4,11-diethyl-3,14-dioxo-4-(phosphonooxy)-3,4,12,14-tetrahydro-1H-pyrano[3′,4′: 6,7]indolizino[1,2-b]quinolin-9-yl 4-(2-(5-(3-(2,4-dihydroxy-5-isopropylphenyl)-5-hydroxy-4H-1,2,4-triazol-4-yl)-1H-indol-1-yl)ethyl)piperidine-1-carboxylate], the “Metabolite Hydrolysis (SN-38)” value ([2]; Hepatocytes Dog) is reported as “√”, the “Metabolite Hydrolysis (SDC-TRAP-0062)” value ([2]; Hepatocytes Dog) is reported as “√” and the “Metabolite Hydrolysis (SN-38) + glucuronidation” value ([2]; Hepatocytes Dog) is reported as “—”. The “Metabolite Hydrolysis (SDC-TRAP-0062) + glucuronidation” value ([2]; Hepatocytes Dog) was “—”, the “Metabolite Hydrolysis (SDC-TRAP-0063)” value ([2]; Hepatocytes Dog) was “—” and the “Metabolite Hydrolysis (SDC-TRAP-0063) + glucuronidation” value ([2]; Hepatocytes Dog) was “—”. For the same compound, the “Metabolite Glucuronidation” value ([2]; Hepatocytes Dog) was “—”, the “Metabolite Hydrolysis (SN-38)” value ([2]; Hepatocytes Human) was “√” and the “Metabolite Hydrolysis (SDC-TRAP-0062)” value ([2]; Hepatocytes Human) was “√”. For the same compound, the “Metabolite Hydrolysis (SN-38) + glucuronidation” value ([2]; Hepatocytes Human) was “—”, the “Metabolite Hydrolysis (SDC-TRAP-0062) + glucuronidation” value ([2]; Hepatocytes Human) was “—” and the “Metabolite Hydrolysis (SDC-TRAP-0063)” value ([2]; Hepatocytes Human) was “√”. The “Metabolite Hydrolysis (SDC-TRAP-0063) + glucuronidation” value ([2]; Hepatocytes Human) was “√”, the “Metabolite Glucuronidation” value ([2]; Hepatocytes Human) was “—” and the “Metabolite Hydrolysis (SN-38)” value ([2]; Hepatocytes Monkey) was “—”. The “Metabolite Hydrolysis (SDC-TRAP-0062)” value ([2]; Hepatocytes Monkey) was “—”, the “Metabolite Hydrolysis (SN-38) + glucuronidation” value ([2]; Hepatocytes Monkey) was “√” and the “Metabolite Hydrolysis (SDC-TRAP-0062) + glucuronidation” value ([2]; Hepatocytes Monkey) was “√”. The “Metabolite Hydrolysis (SDC-TRAP-0063)” value ([2]; Hepatocytes Monkey) was “—”, the “Metabolite Hydrolysis (SDC-TRAP-0063) + glucuronidation” value ([2]; Hepatocytes Monkey) was “√” and the “Metabolite Glucuronidation” value ([2]; Hepatocytes Monkey) was “√”. The “Metabolite Hydrolysis (SN-38)” value ([2]; Hepatocytes Mouse) was “√”, the “Metabolite Hydrolysis (SDC-TRAP-0062)” value ([2]; Hepatocytes Mouse) was “√” and the “Metabolite Hydrolysis (SN-38) + glucuronidation” value ([2]; Hepatocytes Mouse) was “—”. The “Metabolite Hydrolysis (SDC-TRAP-0062) + glucuronidation” value ([2]; Hepatocytes Mouse) was “—”, the “Metabolite Hydrolysis (SDC-TRAP-0063)” value ([2]; Hepatocytes Mouse) was “—” and the “Metabolite Hydrolysis (SDC-TRAP-0063) + glucuronidation” value ([2]; Hepatocytes Mouse) was “√”. The “Metabolite Glucuronidation” value ([2]; Hepatocytes Mouse) was “√”, the “Metabolite Hydrolysis (SN-38)” value ([2]; Hepatocytes Rat) was “—” and the “Metabolite Hydrolysis (SDC-TRAP-0062)” value ([2]; Hepatocytes Rat) was “√”. The “Metabolite Hydrolysis (SN-38) + glucuronidation” value ([2]; Hepatocytes Rat) was “—”, the “Metabolite Hydrolysis (SDC-TRAP-0062) + glucuronidation” value ([2]; Hepatocytes Rat) was “—” and the “Metabolite Hydrolysis (SDC-TRAP-0063)” value ([2]; Hepatocytes Rat) was “—”. The “Metabolite Hydrolysis (SDC-TRAP-0063) + glucuronidation” value ([2]; Hepatocytes Rat) was “√” and the “Metabolite Glucuronidation” value ([2]; Hepatocytes Rat) was “—”.

With `CCNC(=O)c1nnc(-c2cc(C(C)C)c(O)cc2O)n1-c1ccc(CN2CCC(C(=O)N3CCC(C(=O)OC4(CC)C(=O)OCc5c4cc4n(c5=O)Cc5c-4nc4ccc(O)cc4c5CC)CC3)CC2)cc1` (stereo not drawn) [SDC-TRAP-0076, 4,11-diethyl-9-hydroxy-3,14-dioxo-3,4,12,14-tetrahydro-1H-pyrano[3′,4′:6,7]indolizino[1,2-b]quinolin-4-yl 1-(1-(4-(3-(2,4-dihydroxy-5-isopropylphenyl)-5-(ethylcarbamoyl)-4H-1,2,4-triazol-4-yl)benzyl)piperidine-4-carbonyl)piperidine-4-carboxylate] the “% Remaining (1 h)” value [1] was 96.0% and the “% Remaining (1 h, 37° C.)” value [1] was 96%.

In the case of `CCc1c2c(nc3ccc(OC(=O)N(C)CC(=O)N4CCC(CCn5ccc6cc(-n7c(O)nnc7-c7cc(C(C)C)c(O)cc7O)ccc65)CC4)cc13)-c1cc3c(c(=O)n1C2)COC(=O)[C@]3(O)CC` [SDC-TRAP-0337, (S)-4,11-diethyl-4-hydroxy-3,14-dioxo-3,4,12,14-tetrahydro-1H-pyrano[3′,4′: 6,7]indolizino[1,2-b]quinolin-9-yl (2-(4-(2-(5-(3-(2,4-dihydroxy-5-isopropylphenyl)-5-hydroxy-4H-1,2,4-triazol-4-yl)-1H-indol-1-yl)ethyl)piperidin-1-yl)-2-oxoethyl)(methyl)carbamate], the “% Remaining (1 h)” value [1] is reported as 77.3%.

With `CCNC(=O)c1nnc(-c2cc(C(C)C)c(O)cc2O)n1-c1ccc(OC2CCN(C(=O)C3CCCCN3C(=O)Oc3ccc4nc5c(c(CC)c4c3)Cn3c-5cc4c(c3=O)COC(=O)[C@]4(O)CC)CC2)cc1` (stereo partly drawn) [SDC-TRAP-0216, (S)-4,11-diethyl-4-hydroxy-3,14-dioxo-3,4,12,14-tetrahydro-1H-pyrano[3′,4′:6,7]indolizino[1,2-b]quinolin-9-yl 2-(4-(4-(3-(2,4-dihydroxy-5-isopropylphenyl)-5-(ethylcarbamoyl)-4H-1,2,4-triazol-4-yl)phenoxy)piperidine-1-carbonyl)piperidine-1-carboxylate] the “% Remaining (1 h, 37° C.)” value [1] was 67.7%.

With `CCc1c2c(nc3ccc(O)cc13)-c1cc3c(c(=O)n1C2)COC(=O)C3(CC)OC(=O)N1CCN(C(=O)C2CCN(c3ccc(-n4c(O)nnc4-c4cc(C(C)C)c(O)cc4O)cc3)CC2)CC1` (stereo not drawn) the “% Remaining (1 h)” value [1] was 108%.

In the case of `CCNC(=O)c1nnc(-c2cc(C(C)C)c(O)cc2O)n1-c1ccc(C(=O)N2CCN(c3ccc(OC(=O)Nc4cccc5c4C(=O)N(C4CCC(=O)NC4=O)C5=O)c(OC)c3)CC2)cc1` (stereo not drawn) [SDC-TRAP-0398, 4-(4-(4-(3-(2,4-dihydroxy-5-isopropylphenyl)-5-(ethylcarbamoyl)-4H-1,2,4-triazol-4-yl)benzoyl)piperazin-1-yl)-2-methoxyphenyl (2-(2,6-dioxopiperidin-3-yl)-1,3-dioxoisoindolin-4-yl)carbamate], the “% Remaining (1 h)” value [1] is reported as 1.40%.

For `CCc1c2c(nc3ccc(O)cc13)-c1cc3c(c(=O)n1C2)COC(=O)C3(CC)OC(=O)N(C)Cc1ccc(OC(=O)N2CCN(Cc3ccc(-n4c(O)nnc4-c4cc(C(C)C)c(O)cc4O)cc3)CC2)cc1` (stereo not drawn) [SDC-TRAP-0356, 4-(((((4,11-diethyl-9-hydroxy-3,14-dioxo-3,4,12,14-tetrahydro-1H-pyrano[3′,4′:6,7]indolizino[1,2-b]quinolin-4-yl)oxy)carbonyl)(methyl)amino)methyl)phenyl 4-(4-(3-(2,4-dihydroxy-5-isopropylphenyl)-5-hydroxy-4H-1,2,4-triazol-4-yl)benzyl)piperazine-1-carboxylate], the “% Remaining (1 h)” value [1] was 70.9%.

For `CC(C)c1cc(-c2nnc(O)n2-c2ccc3c(ccn3CCC3CCNCC3)c2)c(O)cc1O` [DP-1], the “Tumor Conc.” value ([3]; 24 h) was 0.404 nmol/g of tissue, the “Tumor Conc.” value ([3]; 48 h) was 1.06 nmol/g of tissue and the “Tumor Conc.” value ([3]; […]) was 0.00758 nmol/g of tissue.

From patent US10828315B2 (Madrigal Pharmaceuticals, Inc., priority 2013, dated 2020)
